Each structure is given as a SMILES string.

The subject of this test is acute bronchitis induced by endotracheal administration of lipopolysaccharide. Put plainly: acute bronchitis (bronchiolitis/pneumonia) model, endotracheal LPS. Type of test: in vivo, Wistar rats. From the text:
The therapeutic effectiveness of glutaryl histamine was studied on an experimental model of acute bronchitis. The therapeutic effectiveness of glutaryl histamine was studied on an experimental model of acute bronchitis induced by endotracheal administration of lipopolysaccharide to laboratory Wistar rats through a probe. […] After administration of LPS, from 5 to 7 motions by the syringe plunger was made for better distribution of LPS in the pulmonary tract. After this manipulation, the animals were monitored for 2 hours to reveal complications after the administration.
Dexamethasone in a dose of 5 mg/kg was used a reference medicament.
Histology and morphometry. Respiratory and air pathways were studied on samples taken from the middle third (hilum of the lung) and apexes of the left lung. […] Material for the analysis of the lung histological structure in all animals was taken from the hilum and apex of the lung to study respiratory and air pathways.
The time history of changes in lungs after administration of LPS are shown in FIGS. 1, 2 and 3, wherein the changes are expressed by semi-quantitative scores (intensity of interstitial edema expressed by scores) or by a percentage ratio of the injured part of the lung.

Turning to `O=C(O)CCCC(=O)NCCc1c[nH]cn1` [glutaryl histamine], the “Peribronchial infiltration and interstitial edema (lung sections)” value (27 mg/kg, 24 hours after administration of LPS) is recorded as “Reduction”. The “Peri- and intrabronchial infiltration and interstitial edema (lung sections)” value (27 mg/kg, 72 hours after administration of LPS) is reported as “Reduction”. Also, the interstitial edema result (27 mg/kg, first and third days, compared with the control group) is recorded as “reduction”. Moreover, for the setting “27 mg/kg, starting from the second day up to the third day”, the alveolar infiltration entry is “significant reduction”. Under “all time points, each tested dose”, the “Hemorrhagic symptoms in lungs” value is “significantly weaker compared to the control group and the group of dexamethasone”.

The values above are taken from patent publication US20170143674A1, “Use of Glutaryl Histamine for the Treatment of Respiratory Tract Diseases” (LTD "VALENTA-INTELLEKT", priority 2011, published 2017).
